# Measurements from US20030130280A1, “Treatment of acute myeloid leukemia with indolinone compounds” (SUGEN, Inc., priority 2001, published 2003).
# Entries after “also recorded” stand apart in the source; their conditions may differ.
# Assays:
# RS411 (wild type FLT-3) [1] = assay: Cell proliferation, RS411; type: cell-based
# erk½ = erk½ phosphorylation in OC1-AML5 cells; type: cell-based
# Source text: Activation of downstream pathways by FLT-3 ligand was also investigated, specifically for Stat5 and erk. Stat5 and Erk are downstream mediators of RTK signaling, and may provide readouts for FLT-3 signaling. Stat 5 is a transcription factor which regulates many genes involves in cell survival and proliferation. Erk½ are kinases on the Raf signaling pathway.
# [2] = Bone marrow model, survival; type: in vivo, NOD-SCID mice; conditions: orally once daily
# Procedure: NOD-SCID mice were pretreated with cyclophosphamide (Neosar, Pharmacia, Kalamazoo, Mich.) by intraperitoneal injection of 150 mg/kg/day for 2 days ^(46), followed by 24 hours of rest prior to intravenous (i.v.) injection of 5×10^6 cells via the tail vein. At experimental endpoints, mice were anesthetized, followed by terminal blood collection via intracardiac puncture. Bone marrow cell suspensions were prepared by flushing mouse femurs with cold, sterile PBS. For all studies, a paired Student's t test was used to assess differences between treated and control groups (P<0.05 was considered significant).
# MV411 tumors = assay: Subcutaneous MV411 tumor model, tumor growth; type: in vivo, athymic mice; conditions: within 4 days of treatment
# Procedure: (§1) Tumor cells, MV411 in the example shown were implanted subcutaneously in the hindflank of athymic mice. […] For measurement of efficacy, tumor growth was measured at various subsequent time points using vernier calipers. For analysis of phosphorylation, tumors were resected following dosing (4 hours here), pulverized in liquid nitrogen and homogenized in lysis buffer. FLT-3 and Stat5 phosphorylation were measured by immunoprecipitation and Western blot analysis.
# (§2) Athymic mice were injected subcutaneously with MV411 and RS411 cells to cause tumor formation.
# FLT-3-ITD = assay: FLT-3 phosphorylation in resected xenograft tumors; type: in vivo, athymic mice; conditions: 4 hour treatment
# Procedure: as §1, §2
# OC1-AML5 = assay: VEGF production, OC1-AML5 cells; type: cell-based; conditions: for VEGF %: 0 uM = 100
# MV411 (ITD mutant FLT-3) [3] = assay: Cell proliferation, MV411; type: cell-based
# MV411 (ITD mutant FLT-3) [4] = assay: Apoptosis by PARP cleavage and caspase 3 staining, ITD-mutant cells; type: cell-based; conditions: PARP cleavage, caspase 3 staining
# Procedure: (§3) Apoptosis was measured by analysis of PARP cleavage and by caspase 3 staining.
# RS411 (wild type FLT-3) [5] = assay: Apoptosis by PARP cleavage and caspase 3 staining, wild type cells; type: cell-based; conditions: PARP cleavage, caspase 3 staining
# Procedure: as §3
# FLT-3 = assay: Phase I single dose study, FLT-3 phosphorylation in whole blood; type: in vivo, human; conditions: AML patients, reached in 3 pts at each dose level >200 mg, WT and mutant FLT-3 patients
# Procedure: Immunoprecipitation and Western Blot (IP/W) analysis: Cells were lysed in lysis buffer (20 mM Tris, pH 7.5; 137 mM NaCl; 10% glycerol; 1% NP-40; 0.1% SDS; 2 mM EDTA) containing protease and phosphatase inhibitors (50 mM sodium fluoride, 1 mM sodium orthovanadate, 2 mM Pefabloc, […], […], […], 4 mM leupeptin, and 4 mM pepstatin A). Equivalent amounts of protein were separated by SDS-PAGE, then transferred to nitrocellulose membranes. For analysis of FLT3 phosphorylation, equivalent amounts of protein from each sample were immunoprecipitated overnight at 4*C. with an agarose-conjugated anti-FLT3 antibody (Santa Cruz Biotechnology, Santa Cruz, Calif.). Immune complexes were washed (150 mM NaCl, 1.5 mM MgCl2, 50 mM HEPES, pH 7.5, 10% glycerol, 0.1% Triton X-100, and 1 mM EGTA) and following SDS-PAGE, proteins were transferred to nitrocellulose membranes. Membranes were probed with an anti-phosphotyrosine antibody (Upstate, Lake Placid, N.Y. or Transduction Laboratories, Lexington, Ky.) and then stripped with Restore Western Blot Stripping Buffer (Pierce, Rockford, Ill.). Membranes were reprobed with an anti-FLT3 antibody (Santa Cruz Biotechnology). Stat5 antibodies for immunprecipitation and Western blot analysis were from Upstate Biotechnology and Transduction labs respectively.
# RS4; 11 = assay: VEGF production, RS4;11 cells; type: cell-based; conditions: for VEGF %: 0 uM = 100
smiles,measurement,setting,value
"CCN(CC)CCNC(=O)c1c(C)[nH]c(/C=C2\C(=O)Nc3ccc(F)cc32)c1C [Compound 1, 5-(5-Fluoro-2-oxo-1,2-dihydro-indol-3-ylidenemethyl)-2,4-dimethyl-1H-pyrrole-3-carboxylic acid(2-diethylamino-ethyl)-amide]",expansion of RS411,RS411 (wild type FLT-3) [1],inhibited expansion
same,IL-3 dependent erk activation,erk½; IL-3 dependent,not inhibited
same,Phosphorylation of erk½,erk½; activated by FLT-3 ligand,inhibited
same,dose with highest efficacy on survival,[2],20 mg/kg/day
same,survival,[2]; range of doses,prolonged survival in a dose-dependent manner
same,tumor size,MV411 tumors,dramatically reduced tumor size to almost undetectable
same,activated FLT-3 in tumors,FLT-3-ITD,completely inhibited; also recorded: inhibits
same,VEGF mean sd,OC1-AML5; CMPD 1 0.00 uM,92.5
same,VEGF %,OC1-AML5; CMPD 1 0.00 uM,91.8%
same,VEGF mean sd,OC1-AML5; CMPD 1 0.01 uM,35.6
same,VEGF %,OC1-AML5; CMPD 1 0.01 uM,35.3%
same,VEGF mean sd,OC1-AML5; CMPD 1 0.1 uM,33.6
same,VEGF %,OC1-AML5; CMPD 1 0.1 uM,33.3%
same,VEGF mean sd,OC1-AML5; CMPD 1 1 uM,28.3
same,VEGF %,OC1-AML5; CMPD 1 1 uM,28.0%
same,VEGF %,OC1-AML5; CMPD 1 10 uM,15.5%
same,expansion of MV411,MV411 (ITD mutant FLT-3) [3],inhibited expansion
same,apoptosis,MV411 (ITD mutant FLT-3) [4],causes apoptosis
same,apoptosis,RS411 (wild type FLT-3) [5],causes apoptosis
same,inhibition of FLT-3 phosphorylation,FLT-3,> 50%
same,VEGF mean sd,RS4; 11; CMPD 1 0.00 uM,32.82
same,VEGF mean sd,RS4; 11; CMPD 1 0.01 uM,9.62
same,VEGF %,RS4; 11; CMPD 1 0.01 uM,31.0%
same,VEGF mean sd,RS4; 11; CMPD 1 0.1 uM,1.24
same,VEGF %,RS4; 11; CMPD 1 0.1 uM,4.0%
same,VEGF mean sd,RS4; 11; CMPD 1 1 uM,2.3
same,VEGF %,RS4; 11; CMPD 1 1 uM,7.4%
same,VEGF mean sd,RS4; 11; CMPD 1 10 uM,2.94
same,VEGF %,RS4; 11; CMPD 1 10 uM,9.5%
